From publication PMC11270681, “Synthesis and Systematic Investigation of Lepidiline A and Its Gold(I), Silver(I), and Copper(I) Complexes Using In Vitro Cancer Models and Multipotent Stem Cells” (ACS Omega, 2024)
Where “and” joins values, the source holds several entries; their conditions need not be identical. Equal entries are not always repeated.

Key:
OVC-5 = assay: Cytotoxicity (PrestoBlue), upper gastrointestinal cancer line; assay type: cell-based; conditions: for IC50: OVC-5, 72 h incubation, PrestoBlue
Experimental: (§1) OVCAR-3 (OVC-3) and OVCAR-8 (OVC-8) ovarian serous adenocarcinomas, IGROV-1 ovarian endometrioid adenocarcinoma, OVCAR-5 (OVC-5) upper gastrointestinal carcinoma, MDA-MB-231 breast adenocarcinoma, and MCF-7 and T-47D invasive breast carcinomas were purchased from the Developmental Therapeutic Program of the National Cancer Institute (NIH, USA) and were cultured in an RPMI medium (Thermo Fisher). Mes-Sa and Mes-Sa/Dx5 uterine sarcoma cell lines were purchased from American Type Culture Collection (ATCC) and were kept in DMEM (Thermo Fisher). Mes-Sa B1 was transfected with the human MDR1 gene, and Mes-Sa mCherry, Mes-Sa B1 mOrange, and Mes-Sa/Dx5 eGFP were engineered to stably express the respective fluorescent proteins previously.[51] Culture media for cancer cells were supplemented with 10% fetal bovine serum, 2 mM L-glutamine, and 100 units/mL penicillin and 100 μg/mL streptomycin (Thermo Fisher). The adipose tissue and bone marrow-derived mesenchymal stem cells (AD-MSC and BM-MSC) were described previously[37] and were kept in DMEM-F12 (Gibco) supplemented with 10% fetal bovine serum, L-glutamine (Thermo Fisher), 0.1% gentamicin (Gibco, 50 mg/mL), and 16 ng/mL fibroblast growth factor 2 (Peprotech). Cells were kept at 37 °C under 5% CO2 and were negative for mycoplasma infection.
(§2) Cytotoxicities of the nonfluorescent cancer cells were assessed with a PrestoBlue cell viability reagent (Thermo Fisher). Briefly, 2500 cells/well were seeded on 384-well plates; then, the next-day drugs were added. After 72 h of incubation, PrestoBlue was added in a 10% final concentration, and after an hour of additional incubation, plates were measured with a PerkinElmer EnSpire plate reader at 555 nm/585 nm excitation/emission wavelengths. Stem cells were seeded on 96-well plates at a density of 5000 cells/well, and the following day, drugs were added for 96 h of incubation; then, viability was assessed with 10% PrestoBlue diluted in PBS. Fluorescent cancer cells were admixed before seeding on 384-well plates at an 800 cells/well density each, thus altogether 2400 cells/well. Drugs were added the following day, and the intensity of the fluorescent proteins was measured after 144 h of incubation at the respective fluorescent channels (excitation/emission, eGFP: 485 nm/510 nm; mCherry: 585 nm/610 nm; mOrange: 545 nm/567 nm). pIC50 values were calculated by a custom program written by Judit Sessler in C#. IC50 values and standard deviation were calculated from average pIC50 values from at least 3 independent measurements.

Mes-Sa B1 = assay: Cytotoxicity, MDR1-transfected uterine sarcoma line; assay type: cell-based; conditions: Mes-Sa B1 (MDR1 transfected, ABCB1 expressing), fluorescent protein intensity after 144 h
Experimental: as §1, §2

OVC-8 = assay: Cytotoxicity (PrestoBlue), ovarian cancer line; assay type: cell-based; conditions: OVC-8, 72 h incubation
Experimental: as §1, §2

OVC-3 = assay: Cytotoxicity (PrestoBlue), ovarian cancer line; assay type: cell-based; conditions: OVC-3, 72 h incubation
Experimental: as §1, §2

IGROV-1 = assay: Cytotoxicity (PrestoBlue), ovarian cancer line; assay type: cell-based; conditions: IGROV-1, 72 h incubation
Experimental: as §1, §2

BM-MSC = assay: Cytotoxicity (PrestoBlue), bone marrow-derived mesenchymal stem cells; assay type: cell-based; conditions: 96 h incubation
Experimental: as §1, §2

[1] = Stability in serum-free culture medium by HPLC-UV; assay type: physicochemical; conditions: for AUC (HPLC-UV), single measurements 1-5 / AUC (HPLC-UV), average: serum-free culture medium
Experimental: Stability of the metal complexes in solution was measured in serum-free culture medium. The compounds were dissolved in DMSO right before the experiment. Solutions of Cu-LA and Ag-LA contained 1% final volume of DMSO, while Au-LA contained 30% DMSO. Samples were taken right after dilution, and after 1 h, 2 h, 4 h, 8 h, 16 h, 32 and 48 h, and measured by HPLC-UV.

Mes-Sa/Dx5 = assay: Cytotoxicity, doxorubicin-selected MDR uterine sarcoma line; assay type: cell-based; conditions: Mes-Sa/Dx5 (doxorubicin selected, ABCB1 expressing), fluorescent protein intensity after 144 h
Experimental: as §1, §2

[2] = system: Bone marrow MSCs (BM-MSC); assay: Cytotoxicity, range over bone marrow MSCs; assay type: cell-based; conditions: BM-MSC and immortalized BM-MSC
Experimental: as §1, §2

im. BM-MSC = assay: Cytotoxicity (PrestoBlue), immortalized bone marrow MSC; assay type: cell-based; conditions: 96 h incubation
Experimental: as §1, §2

[3] = system: 3 ovarium cancer lines (IGROV-1, OVC-3, and OVC-8); assay: Cytotoxicity, range over 3 ovarium cancer lines; assay type: cell-based; conditions: IGROV-1, OVC-3, OVC-8
Experimental: as §1, §2

AD-MSC = assay: Cytotoxicity (PrestoBlue), adipose-derived mesenchymal stem cells; assay type: cell-based; conditions: 96 h incubation
Experimental: as §1, §2

Mes-Sa [4] = assay: Cytotoxicity, uterine sarcoma parental line; assay type: cell-based; conditions: fluorescent protein intensity after 144 h
Experimental: as §1, §2

T-47D [5] = assay: H2DCFDA intracellular ROS production assay; assay type: cell-based; conditions: 50 μM, 4 h incubation
Experimental: (§3) To assess intracellular ROS production, we used a H2DCFDA cellular ROS assay kit (ab113851, Abcam) according to the manufacturer’s instructions. Briefly, 20,000 cells were seeded on 96-well plates. On the following day, cells were washed, and H2DCFDA solution, prepared by avoiding direct light, was added for 45 min. Next, cells were washed, and 50 μM samples of test compounds were aspirated on the cells in a complete and phenol red-free medium (FluoroBrite, Thermo Fisher). At each hour, fluorescence of 2′,7′-dichlorofluorescein (DCF) was measured at 484 nm/535 nm excitation/emission wavelengths. Values were normalized to 0 h measurements. Values indicate at least 3 independent measurements.

Mes-Sa [6] = assay: H2DCFDA intracellular ROS production assay; assay type: cell-based; conditions: 50 μM, 4 h incubation
Experimental: as §3

MCF-7 [7] = assay: H2DCFDA intracellular ROS production assay; assay type: cell-based; conditions: MCF-7, 50 μM, 4 h incubation
Experimental: as §3

T-47D [8] = assay: Cytotoxicity (PrestoBlue), breast cancer line; assay type: cell-based; conditions: 72 h incubation
Experimental: as §1, §2

MCF-7 [9] = assay: Cytotoxicity (PrestoBlue), breast cancer line; assay type: cell-based; conditions: MCF-7, 72 h incubation
Experimental: as §1, §2

MDA-MB-231 = assay: Cytotoxicity (PrestoBlue), breast cancer line; assay type: cell-based; conditions: MDA-MB-231, 72 h incubation
Experimental: as §1, §2

[10] = system: 3 breast cancer cell lines (MDA-MB-231, MCF-7 and T-47D); assay: Cytotoxicity, range over 3 breast cancer cell lines; assay type: cell-based; conditions: MDA-MB-231, MCF-7, T-47D
Experimental: as §1, §2

cancer lines = assay: Cytotoxicity, range over cancer lines; assay type: cell-based; conditions: read-out: IC50 range over non-MDR cancer cells
Experimental: as §1
(§4) Cytotoxicities of the nonfluorescent cancer cells were assessed with a PrestoBlue cell viability reagent (Thermo Fisher). Briefly, 2500 cells/well were seeded on 384-well plates; then, the next-day drugs were added. After 72 h of incubation, PrestoBlue was added in a 10% final concentration, and after an hour of additional incubation, plates were measured with a PerkinElmer EnSpire plate reader at 555 nm/585 nm excitation/emission wavelengths. Stem cells were seeded on 96-well plates at a density of 5000 cells/well, and the following day, drugs were added for 96 h of incubation; then, viability was assessed with 10% PrestoBlue diluted in PBS. […] IC50 values and standard deviation were calculated from average pIC50 values from at least 3 independent measurements.

MSCs = assay: Cytotoxicity, range over MSCs; assay type: cell-based; conditions: BMMSC; AD-MSC, BM-MSC, immortalized BM-MSC
Experimental: as §1, §4

Cc1c(C)n(Cc2ccccc2)[c](=[Ag][Cl])n1Cc1ccccc1 [Ag-LA, Chloro-(1,3-dibenzyl-4,5-dimethyl-imidazol-2-ylidene)silver]
IC50 (OVC-5): 40.7 µM
Lower susceptibility of OVC-5 compared to the ovarian cancer lines (OVC-5; OVC-5 vs ovarian cancer lines): 2.5 fold
IC50 (Mes-Sa B1): 20.5 µM
IC50 (OVC-8): 17.4 µM
IC50 (OVC-3): 16.3 µM
IC50 (IGROV-1): 15 µM
IC50 (BM-MSC): 15.7 µM
AUC (HPLC-UV), single measurements 1-5 ([1]; 0 h): 898 and 911 and 926 and 921 and 877
AUC (HPLC-UV), average ([1]; 0 h, Cu-LA, Ag-LA 1% DMSO, Au-LA 30% DMSO): 907
AUC (HPLC-UV), average ([1]; 1 h): 922
AUC (HPLC-UV), single measurements 1-5 ([1]; 1 h): 923 and 921 and 920
AUC (HPLC-UV), average ([1]; 2 h): 923
AUC (HPLC-UV), single measurements 1-5 ([1]; 2 h): 922 and 921 and 923 and 928
AUC (HPLC-UV), average ([1]; 4 h): 924
AUC (HPLC-UV), single measurements 1-5 ([1]; 4 h): 921 and 925 and 927 and 920 and 928
AUC (HPLC-UV), average ([1]; 8 h): 923
AUC (HPLC-UV), single measurements 1-5 ([1]; 8 h): 922 and 924 and 923
AUC (HPLC-UV), average ([1]; 16 h): 922
AUC (HPLC-UV), single measurements 1-5 ([1]; 16 h): 921 and 922
AUC (HPLC-UV), average ([1]; 32 h): 925
AUC (HPLC-UV), single measurements 1-5 ([1]; 32 h): 925 and 926 and 924
AUC (HPLC-UV), average ([1]; 48 h): 921
AUC (HPLC-UV), single measurements 1-5 ([1]; 48 h): 917 and 922 and 920
Stability in serum-free culture medium ([1]; HPLC-UV, observed 48 h): stable
IC50 (Mes-Sa/Dx5): 12 µM
IC50 [2]: 5.7 to 15.7 µM
IC50 (im. BM-MSC): 13.6 µM
IC50 [3]: 10.5 to 17.4 µM
IC50 (AD-MSC): 15.6 µM
IC50 (Mes-Sa [4]): 7.9 µM
Intracellular ROS production compared to the medium (T-47D [5]): ROS was not elevated
More ROS compared to the medium (Mes-Sa [6]): ~50%
More ROS compared to the medium (MCF-7 [7]): ~30%
IC50 (T-47D [8]): 5.83 µM
IC50 (MCF-7 [9]): 10.9 µM
IC50 (MDA-MB-231): 12 µM
IC50 [10]: 5.8 to 12 µM

N.N.[Cl][Pt][Cl] [Cisplatin, cisplatin, reference compound]
IC50 (OVC-5): 7 µM
IC50 (Mes-Sa B1): 2.09 µM
IC50 (OVC-8): 6.34 µM
IC50 (OVC-3): 6.64 µM
IC50 (IGROV-1): 2.19 µM
IC50 (BM-MSC): 2.32 µM
IC50 (Mes-Sa/Dx5): 4.71 µM
IC50 [2]: 2 to 2.3 µM
IC50 (im. BM-MSC): 1.97 µM
IC50 (AD-MSC): 16.7 µM
IC50 (Mes-Sa [4]): 1.84 µM
IC50 (T-47D [8]): 5.99 µM
IC50 (MCF-7 [9]): 2.71 µM
IC50 (MDA-MB-231): 2.17 µM
IC50 [10]: 2.2 to 6 µM

COc1cccc2c1C(=O)c1c(O)c3c(c(O)c1C2=O)C[C@@](O)(C(=O)CO)C[C@@H]3O[C@H]1C[C@H](N)[C@H](O)[C@H](C)O1 [Doxorubicin, doxorubicin, reference compound]
IC50 (OVC-8): 0.19 µM
IC50 (BM-MSC; BMMSC): 0.1 µM
IC50 (Mes-Sa/Dx5; Homo sapiens, MES-SA/Dx5, 144 h): 2.41 µM
IC50 (cancer lines): 0.034 to 0.22 µM
IC50 (im. BM-MSC; BMMSC): 0.067 µM
IC50 (MSCs): 0.067 to 0.13 µM
IC50 (AD-MSC; Mesenchymal stem cells, 96 h): 0.13 µM
IC50 (Mes-Sa [4]; Homo sapiens): 0.038 µM
IC50 (MDA-MB-231; Homo sapiens): 0.22 µM
